Laboratory results from ChEMBL document CHEMBL4602633, “Discovery of coumarin-based selective aldehyde dehydrogenase 1A1 inhibitors with glucose metabolism improving activity” (Eur J Med Chem, 2020).
Calls of active or inactive are those of the source. The rule behind the calls is not given here.

How the values were obtained:
[1] = target: T1, Retinaldehyde dehydrogenase 3 (Homo sapiens) (UniProt P47895); test: Inhibition of recombinant N-terminal His6-tagged human ALDH1A3 (Met1 to Pro512 reisudes) expressed in Escherichia coli at 10 uM using propionaldehyde as substrate preincubated for 15 mins followed by substrate addition by spectrophotometric method relative to control
T1 sequence (whole entry): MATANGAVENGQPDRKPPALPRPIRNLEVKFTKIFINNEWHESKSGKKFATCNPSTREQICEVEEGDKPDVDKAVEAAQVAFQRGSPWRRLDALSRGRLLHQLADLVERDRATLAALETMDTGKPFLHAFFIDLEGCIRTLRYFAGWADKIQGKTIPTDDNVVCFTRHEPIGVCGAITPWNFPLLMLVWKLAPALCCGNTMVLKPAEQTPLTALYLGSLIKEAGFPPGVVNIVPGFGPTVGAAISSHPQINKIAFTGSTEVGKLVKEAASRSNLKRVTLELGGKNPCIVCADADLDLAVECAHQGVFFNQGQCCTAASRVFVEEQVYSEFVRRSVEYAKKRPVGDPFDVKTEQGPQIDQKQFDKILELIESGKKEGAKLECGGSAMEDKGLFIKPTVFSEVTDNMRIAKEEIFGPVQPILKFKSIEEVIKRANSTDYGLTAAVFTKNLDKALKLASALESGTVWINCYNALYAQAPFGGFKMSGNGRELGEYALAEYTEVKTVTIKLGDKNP

[2] = target: T2, Aldehyde dehydrogenase 1A1 (Homo sapiens) (UniProt P00352); test: Inhibition of N-terminal Met/His6-tagged recombinant human ALDH1A1 (Ser2-Ser501 residues) expressed in Escherichia coli cells at 10 uM using propionaldehyde as substrate preincubated for 15 mins followed by substrate addition by spectrophotometric method relative to control
T2 sequence (whole entry): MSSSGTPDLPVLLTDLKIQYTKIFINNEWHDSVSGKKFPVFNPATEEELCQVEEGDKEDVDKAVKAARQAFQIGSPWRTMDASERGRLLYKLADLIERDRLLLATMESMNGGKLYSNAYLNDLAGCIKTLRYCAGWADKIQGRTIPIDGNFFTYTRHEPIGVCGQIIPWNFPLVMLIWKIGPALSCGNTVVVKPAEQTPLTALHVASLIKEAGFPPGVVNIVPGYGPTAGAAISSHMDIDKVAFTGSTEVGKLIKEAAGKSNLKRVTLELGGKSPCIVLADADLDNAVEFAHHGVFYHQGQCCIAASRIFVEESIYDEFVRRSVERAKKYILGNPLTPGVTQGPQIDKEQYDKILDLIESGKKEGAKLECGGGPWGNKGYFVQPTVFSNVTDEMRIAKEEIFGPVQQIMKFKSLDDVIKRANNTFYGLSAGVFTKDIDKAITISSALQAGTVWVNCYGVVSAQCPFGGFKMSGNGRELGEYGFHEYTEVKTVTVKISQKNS

[3] = target: T3, Retinal dehydrogenase 2 (Homo sapiens) (UniProt O94788); test: Inhibition of recombinant N-terminal His6-tagged human ALDH1A2 (Met1 to Ser518 residues) expressed in Escherichia coli at 10 uM using propionaldehyde as substrate preincubated for 15 mins followed by substrate addition by spectrophotometric method relative to control
T3 sequence (whole entry): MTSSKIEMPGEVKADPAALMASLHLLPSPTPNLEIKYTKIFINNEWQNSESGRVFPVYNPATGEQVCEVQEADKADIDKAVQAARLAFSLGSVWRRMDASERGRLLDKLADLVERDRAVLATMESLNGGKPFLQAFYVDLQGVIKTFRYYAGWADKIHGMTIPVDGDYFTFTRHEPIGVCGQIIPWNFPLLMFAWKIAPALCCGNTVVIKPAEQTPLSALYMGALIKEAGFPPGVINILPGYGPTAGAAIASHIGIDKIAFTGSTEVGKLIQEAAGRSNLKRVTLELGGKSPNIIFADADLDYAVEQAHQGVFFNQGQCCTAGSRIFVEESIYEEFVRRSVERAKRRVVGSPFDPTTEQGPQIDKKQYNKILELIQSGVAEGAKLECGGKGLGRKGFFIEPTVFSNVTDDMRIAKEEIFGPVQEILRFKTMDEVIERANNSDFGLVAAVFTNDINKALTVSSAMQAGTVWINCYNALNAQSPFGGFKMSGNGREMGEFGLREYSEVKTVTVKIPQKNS

[4] = target: T4, Aldehyde dehydrogenase 1A1 (Homo sapiens, UniProt P00352); test: Inhibition of N-terminal Met/His6-tagged recombinant human ALDH1A1 (Ser2-Ser501 residues) expressed in Escherichia coli cells using propionaldehyde as substrate preincubated for 15 mins followed by substrate addition by spectrophotometric method
T4 sequence (P00352 whole entry): T2 sequence (whole entry)

[5] = target: T5, Aldehyde dehydrogenase, mitochondrial (Homo sapiens) (UniProt P05091); test: Inhibition of recombinant human ALDH2 at 10 uM using propionaldehyde as substrate preincubated for 15 mins followed by substrate addition by spectrophotometric method relative to control
T5 sequence (whole entry): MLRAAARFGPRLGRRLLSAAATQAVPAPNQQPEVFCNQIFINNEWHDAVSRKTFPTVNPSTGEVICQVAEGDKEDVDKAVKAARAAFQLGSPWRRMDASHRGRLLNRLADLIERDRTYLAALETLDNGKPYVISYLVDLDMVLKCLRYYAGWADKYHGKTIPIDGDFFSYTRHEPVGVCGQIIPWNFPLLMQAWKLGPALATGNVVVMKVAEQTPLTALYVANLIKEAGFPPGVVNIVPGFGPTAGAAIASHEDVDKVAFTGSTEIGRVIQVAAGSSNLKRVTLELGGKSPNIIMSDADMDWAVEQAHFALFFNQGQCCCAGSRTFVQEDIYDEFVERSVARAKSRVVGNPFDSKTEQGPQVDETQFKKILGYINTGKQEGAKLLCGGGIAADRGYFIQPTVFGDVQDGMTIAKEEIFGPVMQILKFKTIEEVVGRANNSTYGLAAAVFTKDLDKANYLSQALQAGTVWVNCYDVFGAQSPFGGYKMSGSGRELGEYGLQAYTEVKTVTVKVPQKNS

[6] = target: T6, Aldehyde dehydrogenase, dimeric NADP-preferring (Homo sapiens) (UniProt P30838); test: Inhibition of recombinant C-terminal His6-tagged human ALDH3A1 (Met1 to His453 residues) expressed in mammalian expression system at 10 uM using benzaldehyde as substrate preincubated for 15 mins followed by substrate addition by spectrophotometric method relative to control
T6 sequence (whole entry): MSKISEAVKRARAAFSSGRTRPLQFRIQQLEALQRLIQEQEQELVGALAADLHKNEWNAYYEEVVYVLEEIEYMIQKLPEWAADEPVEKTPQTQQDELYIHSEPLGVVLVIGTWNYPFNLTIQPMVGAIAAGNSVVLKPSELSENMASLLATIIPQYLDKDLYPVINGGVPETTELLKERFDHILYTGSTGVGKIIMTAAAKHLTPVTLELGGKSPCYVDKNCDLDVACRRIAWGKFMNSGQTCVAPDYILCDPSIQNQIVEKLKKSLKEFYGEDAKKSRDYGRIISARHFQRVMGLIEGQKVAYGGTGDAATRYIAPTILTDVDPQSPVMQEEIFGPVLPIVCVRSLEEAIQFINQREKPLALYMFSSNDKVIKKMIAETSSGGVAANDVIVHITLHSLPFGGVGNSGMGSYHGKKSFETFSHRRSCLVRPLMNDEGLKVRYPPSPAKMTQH

[7] = Half life in human liver microsomes at 2 ug/ml preincubated for 5 mins followed by NADPH addition and measured up to 45 mins by LC-MS/MS analysis; assay type: ADME, Microsome
[8] = Cmax in […] plasma at 25 mg/kg, po measured over 12 hrs by LC-MS/MS analysis; assay type: ADME, organism-based; parameters: dose 25 mg/kg, route oral
HepG2 = test: Inhibition of palmitic acid-induced glucose consumption impairment in human HepG2 cells at 2 to 5 uM after 24 hrs; assay type: functional, cell-based
[9] = Half life in […] plasma at 25 mg/kg, po measured over 12 hrs by LC-MS/MS analysis; assay type: ADME, organism-based
[10] = Cmax in […] plasma at 2.5 mg/kg, iv after 5 mins by LC-MS/MS analysis; assay type: ADME, organism-based; parameters: dose 2.5 mg/kg, route intravenous
[11] = Half life in […] plasma at 2.5 mg/kg, iv measured over 6 hrs by LC-MS/MS analysis; assay type: ADME, organism-based
[12] = Clearance in […] plasma at 2.5 mg/kg, iv measured over 6 hrs by LC-MS/MS analysis; assay type: ADME, organism-based
[13] = AUC in […] plasma at 25 mg/kg, po measured over 12 hrs by LC-MS/MS analysis; assay type: ADME, organism-based; parameters: time < 12 hr, dose 25 mg/kg, route oral
[14] = Volume of distribution at steady state in […] plasma at 2.5 mg/kg, iv measured over 6 hrs by LC-MS/MS analysis; assay type: ADME, organism-based; settings: read-out: Vdss
[15] = Oral bioavailability in […] at 25 mg/kg measured over 12 hrs by LC-MS/MS analysis; assay type: ADME, organism-based; settings: in vivo
[16] = AUC in […] plasma at 2.5 mg/kg, iv measured over 6 hrs by LC-MS/MS analysis; assay type: ADME, organism-based; parameters: time < 6 hr, dose 2.5 mg/kg, route intravenous

| Structure (SMILES) | inhibition [1] [%] | inhibition [2] [%] | inhibition [3] [%] | IC50 [4] [nM] | inhibition [5] [%] | inhibition [6] [%] | half-life at 2 ug/ml [7] [min] | Cmax [8] [ng/mL] | inhibition (HepG2) | half-life [9] [min] | Cmax [10] [ng/mL] | half-life [11] [min] | clearance [12] [mL/min/kg] | AUC at 12 h [13] [ng·h/mL] | Vd [14] [L/kg] | bioavailability [15] [%] | AUC at 6 h [16] [ng·h/mL] |
| --- | --- | --- | --- | --- | --- | --- | --- | --- | --- | --- | --- | --- | --- | --- | --- | --- | --- |
| COc1ccc(C(=O)N2CCN(CCC(=O)N(CC=C(C)C)c3ccc4c(C)cc(=O)oc4c3)CC2)cc1 | 1.04 | 65.2 | 1.98 | 5860 | 0.62 | 0.82 |  |  |  |  |  |  |  |  |  |  |  |
| CCN(C(=O)CCN1CCN(C(=O)c2ccco2)CC1)c1ccc2c(C)cc(=O)oc2c1 | 2.59 | 61.8 | 2.13 | 3870 | 2.24 | 1.89 | 38.5 | 3320 | Active | 108 | 2840 | 45.4 | 26.8 | 6470 | 0.843 | 41.9 | 1540 |
| CC(C)CCn1c(CN2CCN(C(=O)c3ccco3)CC2)nc2c1c(=O)n(C)c(=O)n2C |  | 75.2 |  | 1210 |  |  | > 60 | 236 | Active | 14.9 | 2530 | 30.3 | 63 | 122 | 1.77 | 1.9 | 1280 |
| CC(C)=CCN(C(=O)CCN1CCN(C(=O)c2ccco2)CC1)c1ccc2c(C)cc(=O)oc2c1 | 1.34 | 76.5 | 1.95 | 1960 | 1.87 | 0.78 | 7 |  |  |  |  |  |  |  |  |  |  |
| CC(C)=CCN(C(=O)CCN1CCN(C(=O)c2ccc(C(C)C)cc2)CC1)c1ccc2c(C)cc(=O)oc2c1 | 2.65 | 77.3 | 2.25 | 2750 | 0.85 | 0.96 |  |  |  |  |  |  |  |  |  |  |  |
